In patent publication US20130296347A1, “Compositions and Methods for Prophylaxis and Treatment of Addictions” (Omeros Corporation, priority 2007, published 2013):
Values joined by “and” are separate entries in the source; they are usually repeats but may differ in a detail not shown here. Identical values can stand only once. “Also recorded” adds a separate entry of the source.

Legend:
[1] = tested on: msP rats; assay: Acute voluntary ethanol intake, free choice 10% alcohol 24 hours a day; format: in vivo, rat; conditions: for ethanol intake, drug alone (post-hoc): low dose given at 12 hours and 1 hour before access, partner drugs at doses of the examples; for ethanol intake in a pilot study: low dose: fluoxetine 3.0, mirtazapine 5.0, topiramate 30.0, levetiracetam 100.0, gabapentin 60.0 mg/kg OS, ondansetron 1.0, antalarmin […] IP
Description: MsP rats were first trained to drink 10% (w/v) alcohol for 24 hours a day (free choice between water and ethanol). […] Before starting the treatment, rats were trained to gavage administration procedures for three days, during which they received vehicle (distilled water). […] Drinking experiments started at the beginning of the dark cycle. Alcohol, water and food intakes were monitored at 2, 8 and 24 hours after ethanol was made available.
Before starting the treatment, rats were trained to gavage and IP administration procedures for three days. Experiment was conducted in a between subject design (n=22). […] Drinking experiments started at the beginning of the dark cycle. Alcohol, water and food intakes were monitored at 2, 8 and 24 hours after ethanol was made available.
The drinking experiments were conducted at the beginning of the dark cycle, and alcohol, water and food intakes were monitored at 2, 8 and 24 hours after ethanol was made available.
(§1) MsP rats were first trained to drink 10% (w/v) alcohol for 24 hours a day (free choice between water and ethanol). […] Rats treated with drug vehicles served as a control. Before starting the treatment, rats were trained to gavage administration for three days, during which they received drugs vehicle (distilled water). […] Drinking experiments started at the beginning of the dark cycle. Alcohol, water, and food intakes were monitored at 2, 8 and 24 hours after ethanol was made available.
as §1, with “water” for “water,”
as §1, with “water” for “water,”
as §1, with “water” for “water,”
as §1, with “water” for “water,”
as §1, with “water” for “water,”

[2] = tested on: CD mice; conditions: morphine 30 mg/kg IP twice a day
Description: Morphine hydrochloride was purchased from Salars (Milano, Italy). Morphine (30 mg/kg) was dissolved in NaCl 9% and was injected intraperitoneally (IP) twice a day at the indicated doses in a volume of 0.2 ml per mice.

[3] = tested on: CD mice; assay: Tail-flick test, morphine-induced analgesic tolerance; format: in vivo, mouse; conditions: morphine 30 mg/kg IP twice a day
Description: All procedures were conducted in adherence to the European Community Council Directive for Care and Use of Laboratory Animals.
Mice were divided into 6 groups. Group 1 (n=8) received drug vehicles (veh/veh). […] Animals were treated twice daily (between 9:00 and 10:00 a.m. and 9:00 and 10:00 p.m.).
Morphine hydrochloride was purchased from Salars (Milano, Italy). Morphine (30 mg/kg) was dissolved in NaCl […] and was injected intraperitoneally (IP) twice a day at the indicated doses in a volume of 0.2 ml per mice. […] It was dissolved in distilled water and was administered per o.s. at the doses of 10 mg/kg and 30 mg/kg in a volume of 0.6 ml per mice.
Two different tests were used to monitor analgesic responses. The tail-flick test was performed 45 min after the morning injection of morphine, and the tail-immersion test was performed 45 min after the evening injection of morphine.
For the tail-flick test, each mouse was gently restrained in a soft tissue pocket, and the tail (1 cm from the tip) was exposed to a hot light beam. Latency for tail-flick was measured with a 6 seconds cut-off time. For the tail-immersion test, each mouse was restrained in a soft tissue pocket, and the distal half of the tail dipped into a water bath set at 52 C°. Latency for removing the tail from the hot water was measured with a 10 seconds cut-off time.

[4] = tested on: heavy tobacco smokers; assay: Pilot clinical study in heavy tobacco smokers; format: in vivo, human; design: overall smoking reduction / inhibition of smoking prior to dropping out: concentration or dose not given beside the values; conditions: for Percent inhibition of smoking: baseline data expressed as 100%: T = 0, smoking before entering the treatment; for Percent inhibition of smoking: baseline data expressed as 100% / Percent inhibition of smoking: individual patients; for craving score (visual analogic craving scale): over treatment
Description: Data were recorded for two months, during which patients were seen by the physician every other week. Patients were instructed to record in a personal logbook the number of cigarettes per day and the time of the day smoking occurred. At the end of the study, the logbooks were returned to the clinical personnel who analyzed the data. […] During the first month of treatment, every two weeks, ACTH and cortisol levels were also monitored to evaluate HPA activation before and during treatment.

[5] = tested on: Long Evans rats; assay: Yohimbine-induced reinstatement of nicotine seeking; format: in vivo, rat; conditions: yohimbine 2.0 mg/kg/ml; p<0.001
Description: Stress and anxiety are major factors in resuming nicotine use in former abstinent users. […] Reinstatement experiments and relative drug treatments were performed every third day. Between reinstatements, extinction baseline was re-established.

[6] = tested on: msP rats; assay: Cue-induced reinstatement of alcohol seeking; format: in vivo, rat; conditions: naltrexone 0.25 and 1.0 mg/kg 1 hour before test
Description: Cue-induced reinstatement of alcohol-seeking behaviour experimental procedures consisted of three phases: (1) conditioning phase; (2) extinction phase; and (3) reinstatement phase, as described below.
For the conditioning phase, at the completion of the fading procedure (see above), in 30 min daily sessions, animals were trained to discriminate between 10% alcohol and water. Beginning with self-administration training at the 10% alcohol concentration, discriminative stimuli (SD) predictive of alcohol versus water availability were presented during the alcohol and water self-administration sessions, respectively. The discriminative stimulus for alcohol consisted of the odour of an orange extract (S^+) whereas water availability (i.e. no reward) was signalled by an anise extract (S^−). The olfactory stimuli were generated by depositing six to eight drops of the respective extract into the bedding of the operant chamber. In addition, each lever-press resulting in delivery of alcohol was paired with illumination of the chamber's house light for 5 sec (CS^+). The corresponding cue during water sessions was a 5 second tone (70 dB) (CS). Concurrently with the presentation of these stimuli, a 5 sec. time-out period was in effect, during which responses were recorded but not reinforced. The olfactory stimuli serving as S^+ or S^− for alcohol availability were introduced one minute before extension of the levers and remained present throughout the 30-min. sessions. The bedding of the chamber was changed and bedding trays were cleaned between sessions. During the first three days of the conditioning phase, the rats were given alcohol sessions only. Subsequently, alcohol and water sessions were conducted in random order across training days, with the constraint that all rats received a total of 10 alcohol and 10 water sessions.
For the extinction phase, after the last conditioning day, rats were subjected to 30-min extinction sessions for 15 consecutive days. During this phase, sessions began by extension of the levers without presentation of the SD. […]

[7] = tested on: alcoholic patients; assay: Observational study of alcohol abuse in human patients; format: in vivo
Description: ACT)+psychotherapy. […] Patients were instructed to record in a personal logbook the number of drinks per day and the time of the day drinks occurred. At the end of the study, the logbooks were returned to the clinical personnel who analyzed the data. […] In addition, biochemical parameters to ascertain alcohol detoxification and to measure recovery of physiological functions (i.e., hepatic function) were monitored monthly. Hematological parameters measured included: mean corpuscular volume (MCV); gamma-GT; aspartate aminotransferase (AST); alanine aminotransferase (ALT); and carbohydrate-deficient transferring (CDT). MCV and CDT are biomarkers for ethanol consumption, and GGT, ALT and AST are biomarkers for hepatic functionality. Data were analyzed by analysis of variance followed by Newman-Keuls post hoc tests when appropriate.

[8] = tested on: Marchigian Sardinian alcohol-preferring (msP) rats; assay: Acute voluntary ethanol intake, alcohol access restricted to 2 hours/day; format: in vivo, rat
Description: (§2) At the beginning of the experiments, msP rats were allowed free choice between water and 10% (v/v) alcohol 24 h/day for at least 15 days. The fluids were offered in graduated drinking tubes equipped with metallic drinking spouts. The position (to the right or left) of alcohol and water drinking tubes was changed daily to avoid the development of side preference. Water and food were available ad libitum, while alcohol access was either restricted to 2 hours/day (Examples 1 and 2) or was available 24 hours/day (Examples 3 and 4). Alcohol, water and food intakes were measured.
. After acquisition of a stable baseline of ethanol intake (6-8 g/kg bw; daily), alcohol access was restricted to 2 hours a day at the beginning of the dark phase. Water and food were freely available.
(§3) […]. Before starting the treatment, rats were trained to gavage administration procedures for three days, during which they received vehicle (distilled water).
Treatments were carried out at intervals of at least three days. […] Drinking experiments were conducted right at the beginning of the dark cycle. Alcohol, water and food intakes were monitored at 30, 60, 90 and 120 minutes after ethanol was made available.
The msP rats (n=8) were prepared for the study as described in Example 1. After acquisition of a stable baseline of ethanol intake, alcohol access was restricted to 2 hours a day at the beginning of the dark phase. Water and food were freely available. […]. The experiment was conducted using a within subject counterbalanced Latine square design where each animal received all drug doses.
These experiments were conducted at the beginning of the dark cycle and alcohol, and water and food intakes were monitored at 30, 60, 90 and 120 minutes after ethanol was made available.

[9] = tested on: msP rats; assay: Yohimbine-induced (stress) reinstatement of alcohol seeking; conditions: naltrexone 0.25 and 1.0 mg/kg IP 1 hour before test
Description: Stress-induced reinstatement of alcohol-seeking experimental procedures consisted of three phases: (1) training phase; (2) extinction phase; and (3) reinstatement phase, as described below.
For the training phase, after completion of the fading procedure, msP rats were trained to self-administer 10% (v/v) alcohol for 15 days in 30-min daily sessions under a FR1 schedule of reinforcement. During the infusion, a stimulus house light was turned on for 5 s (time out; TO).
For the extinction phase, after the last alcohol self-administration session, animals were subjected to 30-min extinction sessions for 15 consecutive days.
The day after the last extinction session, rats were subjected to the reinstatement test.
Animals received all drug treatments according to a counterbalance Latin square design. A 3-day interval, during which animals were subjected to extinction sessions, was allowed between drug tests.

[10] = tested on: Marchigian Sardinian alcohol-preferring (msP) rats; assay: Subchronic (7 days) voluntary ethanol intake, 10% alcohol available 24 hours/day; format: in vivo, rat; conditions: 7 days; naltrexone […] IP alone or with pioglitazone 10.0 or 30.0 mg/kg OS
Description: as §2, §3
Alcohol, water and food intakes were monitored at 2, 8 and 24 hours. Fluids and food intakes were monitored for three additional days after the end of the drug treatment period.
[…]. According to a between-subject design, four groups of msP rats (N=9/group) were prepared as described in Example 3. […] […]. Alcohol, water and food intakes were monitored at 2, 8 and 24 hours. Fluids and food intakes were monitored for three additional days after the end of the drug treatment period.

[11] = tested on: heavy tobacco smokers; assay: Pilot clinical study in heavy tobacco smokers; format: in vivo, human
[12] = pioglitazone 30 mg/day or naltrexone 50 mg/day + psychotherapy

Compound: CC[C@@H](C(N)=O)N1CCCC1=O [levetiracetam]
- ethanol intake, drug alone (post-hoc) ([1]; pioglitazone 10 mg/kg OS): did not significantly modify
- ethanol intake in a pilot study [1]: did not reduce ethanol intake

Compound: NCC1(CC(=O)O)CCCCC1 [gabapentin]
- ethanol intake, drug alone (post-hoc) ([1]; pioglitazone 10 mg/kg OS): did not significantly modify
- ethanol intake in a pilot study [1]: did not reduce ethanol intake

Compound: O=C(Nc1ccccc1)c1cc([N+](=O)[O-])ccc1Cl [GW9662]
- ethanol intake ([1]; GW9662 5 μg/rat ICV alone): did not significantly affect
- pioglitazone-induced reduction of ethanol intake ([1]; GW9662 1.0 and 5.0 mg/kg IP with pioglitazone 30 mg/kg OS): blocked the effect of pioglitazone in a dose related manner
- ethanol drinking ([1]; GW9662 alone, 1.0 and 5.0 mg/kg IP): did not modify

Compound: CC1(C)O[C@@H]2[C@@H](CO[C@@]3(COS(N)(=O)=O)OC(C)(C)O[C@@H]23)O1 [topiramate]
- ethanol intake, drug alone (post-hoc) ([1]; pioglitazone 10 mg/kg OS): did not significantly modify
- ethanol intake in a pilot study [1]: did not reduce ethanol intake
- ethanol intake at 2 hours, drug alone ([1]; pioglitazone 10 mg/kg OS, topiramate 30.0 mg/kg OS, p<0.05): significant reduction

Compound: CN1CC[C@]23c4c5ccc(O)c4O[C@H]2[C@@H](O)C=C[C@H]3[C@H]1C5 [morphine]
- tail-immersion analgesic effect on test day 9 [2]: marginally significant
- tail-immersion latency on day 1, 3, 5, and 7 ([2]; p<0.01): significantly increased
- time to tail-flick on test days 7 and 9 [3]: non significant difference from controls
- time to tail-flick on day 1, 3 and 5 ([3]; p<0.01): significantly increased

Compound: CCCCN(CC)c1nc(C)nc2c1c(C)c(C)n2-c1c(C)cc(C)cc1C [antalarmin]
- ethanol intake, drug alone (post-hoc) ([1]; pioglitazone 10 mg/kg OS): did not significantly modify
- ethanol intake in a pilot study [1]: modestly reduced

Compound: c1cnc2cc3c(cc2n1)[C@@H]1CNC[C@H]3C1 [varenicline]
- Percent inhibition of smoking: baseline data expressed as 100% [4]: 100%
- craving score (visual analogic craving scale) [4]: highest reduction
- STAI anxiety score ([4]; over treatment weeks): significantly reduced
- weekly smoked cigarettes compared to bupropione (post hoc) ([4]; p<0.05): significant difference
- subjects reaching complete abstinence ([4]; pioglitazone 4 patients, varenicline 3 patients): one
- overall smoking reduction ([4]; three participants receiving varenicline): 95%

Compound: CN1CCN2c3ncccc3Cc3ccccc3C2C1 (centres unmarked) [mirtazapine]
- ethanol intake, drug alone (post-hoc) ([1]; pioglitazone 10 mg/kg OS): did not significantly modify
- ethanol intake in a pilot study [1]: did not reduce ethanol intake

Compound: COC(=O)[C@@H]1[C@H]2C[C@H]3c4[nH]c5ccccc5c4CCN3C[C@@H]2CC[C@@H]1O [yohimbine]
- reinstatement of responding compared to extinction [5]: significant reinstatement

Compound: Cc1nccn1CC1CCc2c(c3ccccc3n2C)C1=O (centres unmarked) [ondansetron]
- ethanol intake, drug alone (post-hoc) ([1]; pioglitazone 10 mg/kg OS): did not significantly modify
- ethanol intake in a pilot study [1]: did not reduce ethanol intake

Compound: CNCCC(Oc1ccc(C(F)(F)F)cc1)c1ccccc1 (centres unmarked) [fluoxetine]
- ethanol intake, drug alone (post-hoc) ([1]; pioglitazone 10 mg/kg OS): did not significantly modify
- ethanol intake in a pilot study [1]: did not reduce ethanol intake

Compound: O=C1CC[C@@]2(O)[C@H]3Cc4ccc(O)c5c4[C@@]2(CCN3CC2CC2)[C@H]1O5 [naltrexone]
- cue-induced (conditioned) reinstatement of alcohol-seeking [6]: significantly reduced
- hepatic parameters (GGT, ALT, AST) ([7]; 2-month treatment): ameliorated
- Depression Scale M.A.D.R.S (mean score values) ([7]; T = 1.2): 18
- Depression Scale M.A.D.R.S (mean score values) ([7]; T = 1.3): 16
- Depression Scale M.A.D.R.S (mean score values) ([7]; T = 1.4): 17
- Depression Scale M.A.D.R.S (mean score values) ([7]; T = 2.1): 17
- Depression Scale M.A.D.R.S (mean score values) ([7]; T = 2.2): 15
- effect on daily drinks, comparison of drugs ([7]; first two weeks of treatment, P<0.05): more effective than pioglitazone
- daily ethanol intake (number of daily drinks) [7, 12]: significantly reduced
- number of abstinence days [7, 12]: increased
- OCDS versus controls ([7]; post hoc, P<0.001): statistically significant difference
- all five blood biomarkers versus controls (psychotherapy alone) ([7]; post hoc, P<0.001): statistical difference
- ethanol intake at 120 minutes ([8]; naltrexone […] IP alone or with pioglitazone 10 mg/kg OS): did not show significant effects
- ethanol intake at 30, 60, and 90 minutes ([8]; naltrexone […] IP alone or with pioglitazone 10.0 or 30.0 mg/kg OS): significantly reduced
- yohimbine-induced reinstatement of alcohol seeking [9]: did not significantly reduce; also recorded: not modified
- ethanol intake at 8 and 24 hours [10]: not at 8 and 24 hours
- ethanol intake at 2 hours [10]: significantly reduced
- voluntary ethanol intake, overall [10]: significantly reduced

Compound: CC(NC(C)(C)C)C(=O)c1cccc(Cl)c1 (centres unmarked) [bupropione]
- Percent inhibition of smoking ([11]; T = 10 weeks, individual patients, listed as Bup): 40% and 45%
- smoking reduced ([11]; two bupropione patients after 10 weeks of drug administration): about 40%
- Percent inhibition of smoking: baseline data expressed as 100% [4]: 100%
- Percent inhibition of smoking ([4]; T = 2 weeks of treatment, Pio 15-30 mg/daily, Var 0.5 to 2.0 mg/day): 100%
- Percent inhibition of smoking ([4]; T = 4 weeks, listed as Bup): 20% and 18% and 15%
- Percent inhibition of smoking ([4]; T = 6 weeks, listed as Bup): 28% and 20% and 21%
- Percent inhibition of smoking ([4]; T = 8 weeks): 34%
- inhibition of smoking prior to dropping out ([4]; bupropione patient who dropped out after four weeks): 20%
- craving score (visual analogic craving scale) [4]: less effective
